What was measured:
Assay type in all cases: cell-based, human
aquaporin-3 (AQP3) = assay: AQP3 gene expression (TaqMan qPCR) in EpiDerm Full Thickness skin equivalents; conditions: EFT-400 skin equivalents, 4 μL topical, 24 hours, normalized to POLR2A, vs PgETOH vehicle
Experimental: (§1) EpiDerm Full Thickness Skin 3D Equivalents (EFT-400) were purchased from MatTek Corporation (Ashland, MA 01721; lot number 34272, kit N & kit P). Upon receipt the skin equivalents were transferred in new 6-well plates (MatTek Corporation, Ashland, MA 01721) with 2.5 mL of EFT-400 medium (MatTek Corportion, Ashland, MA) and equilibrated overnight.
(§2) The following day, skin equivalents were treated topically with 4 μL of the following treatments: Vehicle, 0.04% Retinol, 0.04% Retinol +0.05% Myrrh resin extract, or 0.04% Retinol +0.1% Myrrh resin extract.
(§3) Propylene glycol/ethanol (PgETOH) (3:7) (w/w) was used as a vehicle. Retinol (BASF 50C) was diluted in PgETOH to a stock concentration of 0.4%. 0.4% Retinol was further diluted to make 0.08% Retinol. Since Retinol is 50% active, the percent active Retinol in the final treatment solution was 0.04% Retinol. Myrrh resin extract (Firmenich) was weighed out to 16.1 mg and diluted in 1.6 mL of PgETOH for a 1% Myrrh resin extract stock solution.
(§4) To make the 0.04% Retinol+0.1% Myrrh resin extract treatment solution combine 100 μL of the 0.4% retinol stock solution, 50 μL of the 1% Myrrh resin extract stock solution, and 350 μL of PgETOH. […]
(§5) The fold changes were calculated in comparison to the vehicle control and two-tailed two-sample Student t-tests (Microsoft Office Excel 2007; Microsoft, Redmond, WA, USA) were performed. […]

interleukin-8 (IL8) = assay: IL8 gene expression (TaqMan qPCR) in EpiDerm Full Thickness skin equivalents; conditions: EFT-400 skin equivalents, 4 μL topical, 24 hours, normalized to POLR2A, vs PgETOH vehicle; irritation marker
Experimental: as §1, §2, §3, §4, §5

[1] = system: cellular retinoic acid binding protein 2 (CRABP2); assay: CRABP2 gene expression (TaqMan qPCR) in EpiDerm Full Thickness skin equivalents; conditions: EFT-400 skin equivalents, 4 μL topical, 24 hours, normalized to POLR2A, vs PgETOH vehicle
Experimental: as §1, §2, §3, §4, §5

SMILES: CC1=C(/C=C/C(C)=C/C=C/C(C)=C/CO)C(C)(C)CCC1 [Sample 2, Retinol]
- AQP3 Average fold change over untreated (aquaporin-3 (AQP3)): 1.82
- IL8 Average fold change over untreated (interleukin-8 (IL8)): 1.22
- CRABP2 Average fold change over untreated [1]: 2.22
